ChEMBL document CHEMBL2074261, “Transcellular transport of organic anions across a double-transfected Madin-Darby canine kidney II cell monolayer expressing both human organic anion-transporting polypeptide (OATP2/SLC21A6) and Multidrug resistance-associated protein 2 (MRP2/ABCC2)” (J Biol Chem, 2002)

Target: Canalicular multispecific organic anion transporter 1/Solute carrier organic anion transporter family member 1B1 (Homo sapiens, UniProt Q92887+Q9Y6L6)
Assay: TP_TRANSPORTER: transepithelial transport (basal to apical) in MRP2- and OATP-C-expressing MDCKII cells
Assay type: functional, cell-based
Details: dog, mdck-ii

Compound | Activity
CC[C@H](C)C(=O)O[C@H]1C[C@H](O)C=C2C=C[C@H](C)[C@H](CC[C@@H](O)C[C@@H](O)CC(=O)O)[C@H]21 [PRAVASTATIN] | substrate [+]
C[C@H](CCC(=O)NCCS(=O)(=O)O)C1CC[C@H]2[C@@H]3CC[C@@H]4C[C@H](OS(=O)(=O)O)CC[C@]4(C)[C@H]3CC[C@]12C (some centres not stated) | substrate [+]
